According to US7348151B1, “Method for the cellular high-throughput-detection of nuclear receptor ligand interactions” (priority 1998, dated 2008):
Like-named read-outs stand apart in the source and are kept apart here.

Tested on: ligand-binding domain of the human estrogen receptor (amino acids 282-595) fused to human Ha-Ras (L61) in cdc25-2 yeast cells
Format: cell-based
Conditions: for growth of cdc25-2-yeast cells: Glu medium + E (10^−5M)
From the text: Expression of a functional, membrane-associated Ras protein fused to a nuclear receptor and/or parts of one such can be detected by the fact that the yeast cells are able to grow irrespective of the presence of a functional GEF protein at said restrictive temperatures if a suitable ligand of the expressed nuclear receptor is present.
The basic vector used is a vector with a marker gene (Ura) and a galactose-inducible promoter (GALI) for the fusion gene to be expressed. As shown diagrammatically in FIG. 2, the DNA sequence to be expressed encodes:
1. a myristylation signal,
3. the human Ha-Ras (L61) which is constitutively active and which lacks the so-called CAAX box, the farnesylation signal for membrane localization.
Conventional yeast transformation and manipulation protocols (see, for example, Hill et al. (1991), NAR 19, 5791) were used. The cells were plated out either on a glucose minimal medium which contains the necessary amino acids and nucleotides (20 mg/l histidine, 100 mg/l leucine, 20 mg/l tryptophan, 20 mg/l uracil, 10 mg/l adenine sulfate), 2% glucose, 0.5% NH4SC4, 0.17% yeast extract and 4% agar, or on galactose medium (1.7 g/l yeast nitrogen without amino acids, 5 g/l ammonium sulfate, 30 g/l galactose (>99%) 20 g/l D-raffinose, 20 g/l glycerol (100%), 30 g/l Bacto Agar).
Clones were plated out on YPD medium (1% yeast extract, 2% Bacto tryptone and 2% glucose) as control. YPD medium contains no galactose, so that there ought to be no expression of the fusion protein.
Replica platings were carried out with velvet replica plater. After transformation with the nucleic acid vector described above, the cells were plated out on glucose plates and incubated at a non-restrictive temperature of 25° C. for three to four days.

Substance: estrogen
- growth of cdc25-2-yeast cells (25° C. (non-restrictive)): +
- growth of cdc25-2-yeast cells (37° C. (restrictive), 12 to 36 h, OD 600): −
- cell reproduction of transformed clones (YPD medium (no galactose, no expression of the fusion protein) with addition of estrogen, control): no cell reproduction
